Consider one molecule from paper PMC8225905, “Activation and detoxification of cassava cyanogenic glucosides by the whitefly Bemisia tabaci” (Scientific Reports, 2021).

This test deals with T1, BtSUC5.
T1 construct: full-length ORF expressed in Drosophila S2 cells; secreted protein fraction (culture supernatant) assayed
Kind of test: LC-MS transglucosidation assay, S2 cell culture supernatant. The class given is biochemical, Bemisia tabaci. The settings on record: 1 M sucrose as glucosyl donor; phosphate buffer pH 7.0; 25 °C; 30 min; glucosyl acceptor.

Broadly, the Km is the substrate concentration at which the rate is half of its maximum.

SMILES strings stand for the structures.

Take `CC(C)(C#N)O[C@@H]1O[C@H](CO)[C@@H](O)[C@H](O)[C@H]1O` [linamarin]: the Km was approximately 500 µM.
